Laboratory results published in patent publication US20250000882A1, “LYSOPHOSPHATIDYLCHOLINE COMBINATIONS AS A THERAPY TO TREAT CARDIAC ARREST” (THE FEINSTEIN INSTITUTES FOR MEDICAL RESEARCH, priority 2021, published 2025).

Columns and labels:
[1] = tested on: rats after 10 minutes of asphyxia-induced cardiac arrest; assay: Rat survival and neurologic function (mNDS) after 10-minute asphyxia-induced cardiac arrest with LPC supplementation; assay type: in vivo; settings: for rat survival for 72 hr after resuscitation (Kaplan-Meier) / modified neurologic deficit score (mNDS) at 24 hours / modified neurologic deficit score (mNDS) at 72 hours: 10-minute cardiac arrest; for rat survival for 72 hr after resuscitation (Kaplan-Meier): 6 mg/kg LPC via femoral vein 1 minute after ROSC, vs vehicle; for modified neurologic deficit score (mNDS) at 24 hours / modified neurologic deficit score (mNDS) at 72 hours: surviving rats, 6 mg/kg, 100% = perfect score
Description: (§1) The study was conducted using adult male Sprague-Dawley rats (400-500 g, Charles River Laboratories, Wilmington, MA) utilizing procedures for asphyxia-induced cardiac arrest and cardiopulmonary resuscitation (CPR). Briefly, asphyxial cardiac arrest was induced by stopping ventilation after injecting vecuronium bromide (2 mg/kg). After 10 or 14 minutes of asphyxia-cardiac arrest, ventilation was restarted with chest compressions. Typically, rats achieve ROSC within 1 minute after the initiation of CPR. Rats were extubated 2 hours after ROSC. Blood samples were collected from the femoral artery at baseline and multiple time points during cardiac arrest or postresuscitation. Plasma was separated using centrifugation at 1,000×g for 10 minute and stored at −80° C. Brain tissue was harvested from animals that survived for 72 hours after perfusion with saline and fixed with 4% paraformaldehyde.
To test the beneficial effect of LPC supplementation, LPC (18:1) was first administered because it was the only commercially available species out of the four LPC species decreased after 10 minute of cardiac arrest. The study was then extended to test the effect of attached fatty acid by including custom-made LPC (22:6) and LPC (18:0). Different groups of control rats for each set of experiment for accurate assessment were used. Rats were randomized into each group (n=12). Baseline characteristics of rats were not different between the groups in each set of experiment.
The LPC species mixed with 0.5% bovine serum albumin (BSA) in phosphate-buffered saline (0.5 mL) was injected over 1 minute via the femoral vein cannula beginning 1 minute after ROSC, with vehicle group injected with only BSA. 6 mg/kg of LPC was injected, because this dosage preserved LPC level in post-resuscitation plasma for 2 hours after 10-minute cardiac arrest. The purities of the injected LPC species were over 98%.
Survival was followed for 72 hours with brain function evaluated in a blinded manner using the modified neurologic deficit score (mNDS) after resuscitation for surviving rats. The mNDS is expressed as percentage, with 100% representing perfect score.
Kaplan-Meier curves compared survival between the LPC and vehicle groups using the Wilcoxon test. For phospholipids levels, Mann-Whitney U test was used to compare two independent groups. Repeated measures analysis of variance was used to compare the vital signs between two groups. Spearman correlation coefficients were calculated to evaluate the correlation between blood pH and plasma LPC levels. For changes in plasma LPC levels postreperfusion, we performed Jonckheere-Terpstra test. Statistical analyses were performed using the JMP software (Version 14.2, SAS Institute, Cary, NC). p values of less than 0.05 were considered statistically significant. Data were expressed as the mean±se of the mean.

[2] = tested on: rats after 12 minutes of asphyxia-induced cardiac arrest; assay: 12 minutes of asphyxia-induced cardiac arrest rat model (survival, plasma troponin I, SSEP); assay type: in vivo; settings: 12 minutes of cardiac arrest
Description: as §1
The therapeutic effects of LPC species as well as combination of all three species was then tested using 12 minutes of cardiac arrest, which induces more severe injury than 10 minutes of cardiac arrest. […] Also compared was the plasma troponin I level to assess the effects of individual LPC species LPC (18:0), LPC (18:1), LPC (22:6) and the LPC Combination for heart function (see FIG. 8 and FIG. 9 respectively). […] Since these rats are severely injured and mNDS are not appropriate to measure their brain function, we used SSEP to compare the brain function between LPC (18:1) and LPC combination groups.

[3] = tested on: neurons in hippocampal CA1 region and cortex; assay: Brain histology (Nissl and Fluoro-Jade B staining) at 72 hours post-resuscitation; assay type: in vivo, rat; settings: for number of neurons in the hippocampus (Nissl staining), % of control values: 10-minute cardiac arrest; for degenerating cells in the cortex (FJB staining), fold increase compared with control value: vehicle seven-fold
Description: as §1
Plasma phospholipids were analyzed using plasma samples obtained from humans and rats following our established high-performance liquid chromatography-mass spectrometry (HPLC-MS) method. For brain histology, serial coronal sections (14 μm) were prepared from the fixed brain tissue using a cryostat (CM1900, Leica, Germany). The sections were used for Nissl staining to determine the number of surviving neurons in hippocampal CA1 region or Fluoro-Jade B (FJB) staining to count the number of degenerative neurons in the cortex.

[4] = diet supplemented with LPC; cited from earlier work
IL-10 = assay: Plasma IL-10 level, 10 minutes of asphyxia-induced cardiac arrest rat model; assay type: in vivo; settings: after 10 minutes of cardiac arrest
Description: (§2) Using the 10 minutes of asphyxia-induced cardiac arrest rat model, supplementing LPC (18:1) decreased inflammatory IL-6′ levels and increased the anti-inflammatory IL-10 levels in rat plasma after 10 minutes of cardiac arrest (FIG. 15A and FIG. 15B).

IL-6 = assay: Plasma IL-6 level, 10 minutes of asphyxia-induced cardiac arrest rat model; assay type: in vivo; settings: after 10 minutes of cardiac arrest
Description: as §2

heart = assay: Heart ejection fraction at 2 h after resuscitation; assay type: in vivo, rat; settings: 10 min cardiac arrest per FIG. 13 legend
Description: (§3) The beneficial effects of LPC (18:2), LPC(20:4), and LPC (16:0) for their beneficial effects using the same cardiac arrest model were also tested. […] Furthermore, none of the LPC (18:2) treated rats were able to walk whereas 40 to 50% of LPC (22:6) and LPC (18:1) treated rats were able to walk.

lung = assay: Lung wet-to-dry weight ratio after cardiac arrest; assay type: in vivo, rat
Description: as §3

neuronal cells = settings: rats supplemented with LPC; cited from earlier work

| Compound | rat survival for 72 hr after resuscitation (Kaplan-Meier) [1] | plasma troponin I level [2] | modified neurologic deficit score (mNDS) at 24 hours [1] [%] | modified neurologic deficit score (mNDS) at 72 hours [1] [%] | number of neurons in the hippocampus (Nissl staining), % of control values [3] [%] | degenerating cells in the cortex (FJB staining), fold increase compared with control value [3] | also measured |
| --- | --- | --- | --- | --- | --- | --- | --- |
| lysophosphatidylcholine (18:0) [LPC (18:0)] | no improved outcomes | only the LPC Combination showed a decrease | – | – | – | – | effect on neuronal cellular morphology [3]: minimal effect |
| lysophosphatidylcholine (22:6) [LPC (22:6)] | improved rat survival | only the LPC Combination showed a decrease | 51 | 86 | 88 | decreased to a three-fold increase | cognitive functions [4]: improved their cognitive functions |
| lysophosphatidylcholine (18:1) [LPC (18:1)] | significantly improved rat survival | only the LPC Combination showed a decrease | 66 | 76 | 86 | decreased to a three-fold increase | anti-inflammatory IL-10 levels in rat plasma (IL-10): increased; inflammatory IL-6 levels in rat plasma (IL-6): decreased; rat survival (Kaplan-Meier) [2]: most significantly improved rat survival; return of the SSEP signal (brain function) [2]: did not happen |
| lysophosphatidylcholine (18:2) [LPC (18:2)] | – | – | – | – | – | – | heart ejection fraction (heart): improved; neuroprotective effect (mNDS at 48 hours and 72 hours) ([1]; 10 min cardiac arrest per FIG. 12 legend): not as good as LPC (18:1) or LPC (22:6); rat survival (Kaplan-Meier) ([1]; "same cardiac arrest model", 10 min cardiac arrest per FIG. 11 legend): significantly improve survival; treated rats able to walk ([1]; after cardiac arrest): none; lung wet-to-dry ratio (lung): Reduced |
| CCCCCCCCCCCCCC(=O)OC[C@@H](O)COP(=O)([O-])OCC[N+](C)(C)C [LPC (14:0)] | – | – | – | – | – | – | protection of neuronal cells after brain ischemia (neuronal cells): provided protecting to neuronal cells |
